Measurements published in PMC6337391 (Molecules, 2019).
Read-outs that look alike come from different tables or passages of the source.

Tests used:
soybean lipoxygenase = biological target: T1, soybean lipoxygenase (Glycine max, UniProt P08170); test: biochemical; format: biochemical
T1 sequence (P08170 1-839): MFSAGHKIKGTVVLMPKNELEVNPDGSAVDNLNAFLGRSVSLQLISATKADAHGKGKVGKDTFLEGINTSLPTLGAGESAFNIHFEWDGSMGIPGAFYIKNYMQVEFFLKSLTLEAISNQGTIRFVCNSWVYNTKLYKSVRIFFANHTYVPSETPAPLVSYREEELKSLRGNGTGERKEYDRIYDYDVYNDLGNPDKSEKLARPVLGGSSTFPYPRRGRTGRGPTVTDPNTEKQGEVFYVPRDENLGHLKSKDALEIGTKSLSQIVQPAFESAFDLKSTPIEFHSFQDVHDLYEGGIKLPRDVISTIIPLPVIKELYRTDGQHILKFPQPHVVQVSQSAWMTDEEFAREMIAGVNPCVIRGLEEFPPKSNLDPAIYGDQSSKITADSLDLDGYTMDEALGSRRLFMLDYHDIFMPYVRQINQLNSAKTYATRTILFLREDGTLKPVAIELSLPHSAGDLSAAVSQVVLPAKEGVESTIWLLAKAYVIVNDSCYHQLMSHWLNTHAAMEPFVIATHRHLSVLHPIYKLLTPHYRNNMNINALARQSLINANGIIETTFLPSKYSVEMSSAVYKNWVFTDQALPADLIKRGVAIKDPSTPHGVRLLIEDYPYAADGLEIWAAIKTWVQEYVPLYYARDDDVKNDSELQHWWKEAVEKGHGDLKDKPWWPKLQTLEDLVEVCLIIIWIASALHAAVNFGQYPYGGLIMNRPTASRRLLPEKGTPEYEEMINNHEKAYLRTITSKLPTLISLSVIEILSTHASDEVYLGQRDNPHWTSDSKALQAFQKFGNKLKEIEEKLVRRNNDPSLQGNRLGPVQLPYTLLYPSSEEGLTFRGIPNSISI
Method in brief: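 Soybean LOX (enzyme solution 1/9 × 10^−4 w/v in saline) incubated at room temperature with sodium linoleate ([…]) in tris buffer pH 9. Compounds added from DMSO stocks. IC50 derived from several concentrations.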

Aβ40 = biological target: T2, Aβ40 (Homo sapiens, UniProt P05067); test: Circular dichroism study of Aβ40 aggregation; settings: 50 µM compound, 50 µM Aβ40 (1:1), PB pH 7.33, 33 °C, 40 days
T2 construct: Amyloid peptide Aβ40 was purchased from AnaSpec Co; purchased AnaSpec Co. (Fremont, CA, USA)
T2 sequence (P05067 672-711 limits assumed): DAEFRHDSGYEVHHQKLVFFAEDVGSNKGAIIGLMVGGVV
Text: The pathogenesis of Alzheimer’s disease (AD) is widely associated with the aggregation of β-amyloid peptide (Aβ) either to soluble oligomers or to higher-order polymeric insoluble fibrils. As a result, one of the main therapeutic strategies against AD targets the aggregation process of Aβ, and a great number of small molecules are being investigated for their potential to intervene in the assembly of Aβ and inhibit its neurotoxicity in vitro and in vivo [64]. Circular dichroism (CD) spectroscopy is commonly used to probe the secondary structure of polypeptides and to monitor conformational changes and interactions of polypeptides with small molecules. The typical aggregation process of Aβ produces characteristic CD spectra over time that reflect the conformational changes that occur as the random coil monomers are converted into β-sheet oligomers, and then gradually to larger β-sheet formations that finally produce amyloid fibrils. CD is, therefore, a valuable tool to monitor the aggregation process of Aβ and to study the effect of potential aggregation inhibitors. To further investigate the pleiotropic effects of chalcones against AD, selected compounds from our library, were subjected to CD studies in order to evaluate their potential to interfere with the aggregation process of Aβ40. […] The aggregation spectra of plain Aβ40 show at day 0 the typical random coil peak (negative maximum at 198 nm) the intensity of which gradually decreases as the peptide forms β–sheet structures (negative maximum at 222 nm, day 15) that further aggregate to higher order polymeric fibrils. The precipitation of the insoluble fibrils from solution eventually results in the loss of CD signal (days 30 and 40). […] In view of the above results, chalcone derivatives bearing a three-carbon chain linker, specifically c2, c3, and c4, were subsequently studied in order to assess the effect of further derivatization and the presence of the chalcone moiety in the structure. […] Overall, our CD study identified three new structures capable of interfering with the aggregation process of Aβ, out of which compounds c2 and c4 display additional protective actions against AD and add to the pleiotropic profile of the chalcone derivatives.
Preparation of Aβ stocks and solutions. Amyloid peptide Aβ40 was purchased from AnaSpec Co. (Fremont, CA, USA) (>95% pure). Aβ40 was gently dissolved without vortexing in Type 1 (Milli-Q) water to a final concentration of 100 μM. Solutions of Aβ in phosphate buffer (PB, 10 mM, pH 7.33) were prepared by adding equal volumes of PB to aliquots of the aqueous solution stock to achieve final concentration of 50 µM. The proper amount of the compounds c2, c3, c4, di, dii, and dvi were added to the Aβ solutions to achieve concentration of 50 μM. The secondary structural changes of Aβ were monitored for 40 days by CD. During this period, the amyloid peptide solutions were kept at an incubator at 33 °C under quiescent conditions.
Circular dichroism measurements. CD spectra were recorded on a JASCO J-715 spectropolarimeter (Jasco Co., Tokyo, Japan), at 33 °C in the range of 190–260 nm with a 1 mm path length quartz cuvette. Each spectrum was the average of three scans at a speed of 100 nm·min^−1 and a resolution of 0.5 nm. Three independent experiments were run for each condition and in each case solutions of plain Aβ were run as control (Figure 8). The analysis of the CD data was performed using the OriginPro 9 program.

| SMILES | % LOX Inhb. @ 100 μM (soybean lipoxygenase; soybean LOX) [%] | IC50 (soybean lipoxygenase; soybean LOX, read-out: LOX IC50) [µM] | IC50 (soybean lipoxygenase) [µM] | effect on the aggregation process of Aβ40 (CD spectra) (Aβ40) |
| --- | --- | --- | --- | --- |
| O=C(/C=C/c1cccc2ccccc12)c1ccccc1O [b4, (E)-1-(2-hydroxyphenyl)-3-(naphthalen-1-yl) prop-2-en-1-one] | 82 | 65 |  |  |
| O=C(/C=C/C=C/c1ccc([N+](=O)[O-])cc1)c1ccc(OCCCOc2ccc(C(=O)/C=C/C=C/c3ccc([N+](=O)[O-])cc3)cc2)cc1 [c11, (2E,2′E,4E,4′E)-1,1′-((propane-1,3-diylbis(oxy))bis(4,1-phenylene))bis(5-(4-nitrophenyl)penta-2,4-dien-1-one)] | 95 |  | 50 |  |
| CC(=O)c1ccc(OCCOc2ccc(C(C)=O)cc2)cc1 [di, 1,1′-((ethane-1,2-diylbis(oxy))bis(4,1-phenylene))diethanone] | 12 |  |  | did not significantly change the fibrillization course of Aβ40 |
| CC(=O)c1ccc(OCCCCCCCOc2ccc(C(C)=O)cc2)cc1 [dvi, 1,1′-((heptane-1,7-diylbis(oxy))bis-(4,1-phenylene)) diethanone] | 17 |  |  | did not significantly change the fibrillization course of Aβ40 |
